Data from patent US20230312587A1, “PTERIDINONE COMPOUNDS AND USES THEREOF” (Vertex Pharmaceutical Incorporated, priority 2018, published 2023).
Read-outs that look alike come from different tables or passages of the source.

Tests used:
[1] = tested on: β-catenin-TCF-mediated reporter transcription activity in Colo 205 cells; assay: Colo 205 reporter assay (TCF/LEF luciferase); assay type: cell-based; details: Colo 205 TCF/LEF luciferase reporter, five hours after addition of compound, read-out: TCF reporter Colo205 IC50
Summary of the method: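 Luciferase signal from a TCF/LEF-driven reporter, stably integrated in Colo 205 colon cancer cells, was measured 5 h after compound addition.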

[2] = tested on: HepG2 XBP1(u)-Luc cells; assay: HepG2 XBP1 reporter assay; assay type: cell-based; details: 6 h
Procedure: HepG2 hepatoma cells were transduced with a retrovirus encoding the cDNA for unspliced (u) XBP1, which contains a non-processed intron, fused to the cDNA for firefly luciferase. Upon induction of ER stress, the non-processed intron of XBP1(u) is spliced out by active IRE1alpha endonuclease. The resulting spliced (s) XBP1 is now in frame with luciferase which causes the production of active luciferase protein, resulting in bioluminescence
HepG2 XBP1(u)-Luc cells were plated […] Cultured cells with a stably transfected reporter construct were plated at approximately 30,000 cells per well into 96 well multi-well plates for twenty four hours. The testing compounds were then added to the wells in 3-fold serial dilutions using a twenty seven micromolar top concentration. A series of control wells for each cell type received only compound solvent. Six hours after the addition of compound, reporter activity for luciferase was assayed, by addition of the SteadyGlo luminescence reagent (Promega). The reporter luminescence activity was measured using Pherastar plate reader (BMG Labtech). Readings was normalized to DMSO only treated cells, and normalized activities were then used in the IC50 calculations. The HepG2 XBP1 reporter assay data are summarized in Table 47: A<0.6 μM; 0.6 μM≤B<2.0 μM; 2.0 μM≤C<10.0 μM; D≥10.0 μM.

Structure (SMILES) | IC50 [1] | IC50 ([2]; Homo sapiens) | IC50 [2] | IC50 ([1]; Homo sapiens, COLO 205, 5 h)
Cc1nc(N[C@H]2CC[C@H](Oc3ccc(C(F)(F)F)nc3)C2)nc2c1NC(=O)[C@H](C)N2C (single isomer, unassigned) [Compound 376] | 1000 to 5000 nM | 600 to 2000 nM |  | 
Cc1nc(N[C@H]2CC[C@H](Oc3ccc(C(F)(F)F)nc3)C2)nc2c1NC(=O)[C@H](C)N2C (single isomer, unassigned) [Compound 377] | < 300 nM |  | 600 to 2000 nM | 
Cc1nc(NCc2cnn(Cc3cccc(C(C)C)c3)c2)nc2c1NC(=O)[C@H](C)N2C [Compound 80, (7S)-2-(((1-(3-isopropylbenzyl)-1H-pyrazol-4-yl)methyl)amino)-4,7,8-trimethyl-7,8-dihydropteridin-6(5H)-one] |  | < 600 nM |  | < 300 nM
COc1cc(F)ccc1Cn1cc(CNc2nc(C)c3c(n2)N(C)[C@@H](C)C(=O)N3)cn1 [Compound 83, (7S)-2-(((1-(4-fluoro-2-methoxybenzyl)-1H-pyrazol-4-yl)methyl)amino)-4,7,8-trimethyl-7,8-dihydropteridin-6(5H)-one] |  | 600 to 2000 nM |  | < 300 nM
Cc1cc(F)ncc1Cn1cc(CNc2nc(C)c3c(n2)N(C)[C@@H](C)C(=O)N3)cn1 [Compound 94, (7S)-2-(((1-((6-fluoro-4-methylpyridin-3-yl)methyl)-1H-pyrazol-4-yl)methyl)amino)-4,7,8-trimethyl-7,8-dihydropteridin-6(5H)-one] |  | 600 to 2000 nM |  | < 300 nM
Cc1nc(NCc2cnn(Cc3cc(F)c(F)c(F)c3)c2)nc2c1NC(=O)[C@H](C)N2C [Compound 122, (7S)-4,7,8-trimethyl-2-(((1-(3,4,5-trifluorobenzyl)-1H-pyrazol-4-yl)methyl)amino)-7,8-dihydropteridin-6(5H)-one] |  | < 600 nM |  | < 300 nM
Cc1nc(NCc2ccc(-n3cc(C(F)(F)F)cn3)nc2)nc2c1NC(=O)[C@H](C)N2C [Compound 143, (S)-4,7,8-trimethyl-2-(((6-(4-(trifluoromethyl)-1H-pyrazol-1-yl)pyridin-3-yl)methyl)amino)-7,8-dihydropteridin-6(5H)-one] |  | 2000 to 10000 nM |  | 300 to 1000 nM
Cc1nc(NCc2cnn([C@@H]3C[C@@H]3c3ccc(F)cc3)c2)nc2c1NC(=O)[C@H](C)N2C [Compound 154, (7S)-2-(((1-((1R,2R)-2-(4-fluorophenyl)cyclopropyl)-1H-pyrazol-4-yl)methyl)amino)-4,7,8-trimethyl-7,8-dihydropteridin-6(5H)-one] |  | < 600 nM |  | < 300 nM
CC[C@H]1C(=O)Nc2c(C)nc(NCc3cnn(Cc4ccc(C(F)(F)F)nc4)c3)nc2N1C [Compound 186, (7S)-7-ethyl-4,8-dimethyl-2-(((1-((6-(trifluoromethyl)pyridin-3-yl)methyl)-1H-pyrazol-4-yl)methyl)amino)-7,8-dihydropteridin-6(5H)-one] |  | < 600 nM |  | < 300 nM
Cc1nc(C(F)(F)F)ccc1Cn1cc(CNc2nc(C)c3c(n2)N(C)[C@@H](C)C(=O)N3)cn1 [Compound 188, (S)-4,7,8-trimethyl-2-(((1-((2-methyl-6-(trifluoromethyl)pyridin-3-yl)methyl)-1H-pyrazol-4-yl)methyl)amino)-7,8-dihydropteridin-6(5H)-one] |  | < 600 nM |  | < 300 nM
Cc1nc(NCc2cnn(Cc3ccnc(C(F)(F)F)c3)c2)nc2c1NC(=O)[C@H](C)N2C [Compound 207, (7S)-4,7,8-trimethyl-2-(((1-((2-(trifluoromethyl)pyridin-4-yl)methyl)-1H-pyrazol-4-yl)methyl)amino)-7,8-dihydropteridin-6(5H)-one] |  | < 600 nM |  | < 300 nM
Cc1nc(N[C@H]2C[C@H](Oc3ccc(F)cc3)C2)nc2c1N(C)C(=O)[C@H](C)N2C [Compound 250, (7S)-2-((trans-3-(4-fluorophenoxy)cyclobutyl)amino)-4,5,7,8-tetramethyl-7,8-dihydropteridin-6(5H)-one] |  |  |  | 300 to 1000 nM
Cc1nc(N[C@H]2C[C@H](Oc3ccc(C(F)(F)F)nc3)C2)nc2c1NC(=O)[C@H](C)N2C [Compound 324, (7S)-4,7,8-trimethyl-2-((trans-3-((6-(trifluoromethyl)pyridin-3-yl)oxy)cyclobutyl)amino)-7,8-dihydropteridin-6(5H)-one] |  | < 600 nM |  | < 300 nM
Cc1nc(N[C@H]2C[C@@H](Sc3cc(F)c(F)c(F)c3)C2)nc2c1NC(=O)[C@H](C)N2C [Compound 332, (7S)-4,7,8-trimethyl-2-((cis-3-((3,4,5-trifluorophenyl)thio)cyclobutyl)amino)-7,8-dihydropteridin-6(5H)-one] |  | < 600 nM |  | < 300 nM

Results, then the molecule that gave them:

IC50 [1] | IC50 ([2]; Homo sapiens) | IC50 [2] | IC50 ([1]; Homo sapiens, COLO 205, 5 h) | Structure (SMILES)
 |  |  | < 300 nM | COc1c(F)cc(Cn2cc(CNc3nc(C)c4c(n3)N(C)[C@@H](C)C(=O)N4)cn2)cc1F [Compound 46, (7S)-2-(((1-(3,5-difluoro-4-methoxybenzyl)-1H-pyrazol-4-yl)methyl)amino)-4,7,8-trimethyl-7,8-dihydropteridin-6(5H)-one]
 |  |  | < 300 nM | Cc1nc(NCc2cnn(Cc3ccc(F)nc3)c2)nc2c1NC(=O)[C@H](C)N2C [Compound 77]
 | 600 to 2000 nM |  | 300 to 1000 nM | Cc1nc(NCc2cnn([C@H]3CCN(C4CCC(F)(F)CC4)C3)c2)nc2c1NC(=O)[C@H](C)N2C [Compound 142, (7S)-2-(((1-((S)-1-(4,4-difluorocyclohexyl)pyrrolidin-3-yl)-1H-pyrazol-4-yl)methyl)amino)-4,7,8-trimethyl-7,8-dihydropteridin-6(5H)-one]
 | < 600 nM |  | < 300 nM | Cc1nc(NCc2cnn(Cc3cc(C(F)(F)F)nn3C)c2)nc2c1NC(=O)[C@H](C)N2C [Compound 160, (7S)-4,7,8-trimethyl-2-(((1-((1-methyl-3-(trifluoromethyl)-1H-pyrazol-5-yl)methyl)-1H-pyrazol-4-yl)methyl)amino)-7,8-dihydropteridin-6(5H)-one]
 | 2000 to 10000 nM |  | 1000 to 5000 nM | Cc1ccc(Cn2cc(CNc3nc(C)c4c(n3)N(C)[C@@H](C)C(=O)N4)cn2)cn1 [Compound 173, (7S)-4,7,8-trimethyl-2-(((1-((6-methylpyridin-3-yl)methyl)-1H-pyrazol-4-yl)methyl)amino)-7,8-dihydropteridin-6(5H)-one]
 | 600 to 2000 nM |  | < 300 nM | Cc1nc(NCc2cnn([C@@H](C)c3ccc(C(F)(F)F)nc3)c2)nc2c1NC(=O)[C@H](C)N2C [Compound 174, (7S)-4,7,8-Trimethyl-2-(((1-((S)-1-(6-(trifluoromethyl)pyridin-3-yl)ethyl)-1H-pyrazol-4-yl)methyl)amino)-7,8-dihydropteridin-6(5H)-one]
 |  |  | < 300 nM | Cc1nc(N[C@H]2C[C@H](Oc3cc(F)c(F)c(F)c3)C2)nc2c1NC(=O)[C@H](C)N2C [Compound 246, (7S)-4,7,8-trimethyl-2-((trans-3-(3,4,5-trifluorophenoxy)cyclobutyl)amino)-7,8-dihydropteridin-6(5H)-one]
 | < 600 nM |  | < 300 nM | Cc1nc(N[C@H]2C[C@H](Sc3cc(F)c(F)c(F)c3)C2)nc2c1NC(=O)[C@H](C)N2C [Compound 329, (7S)-4,7,8-trimethyl-2-((trans-3-((3,4,5-trifluorophenyl)thio)-cyclobutyl)amino)-7,8-dihydropteridin-6(5H)-one]
